The target of one assay is T1, ACAT (Rattus norvegicus, UniProt Q7TQM4).
T1 construct: Rat liver microsomes are used as the source of ACAT; from tissue; host or cells: rat liver microsomes
T1 sequence (Q7TQM4 1-524): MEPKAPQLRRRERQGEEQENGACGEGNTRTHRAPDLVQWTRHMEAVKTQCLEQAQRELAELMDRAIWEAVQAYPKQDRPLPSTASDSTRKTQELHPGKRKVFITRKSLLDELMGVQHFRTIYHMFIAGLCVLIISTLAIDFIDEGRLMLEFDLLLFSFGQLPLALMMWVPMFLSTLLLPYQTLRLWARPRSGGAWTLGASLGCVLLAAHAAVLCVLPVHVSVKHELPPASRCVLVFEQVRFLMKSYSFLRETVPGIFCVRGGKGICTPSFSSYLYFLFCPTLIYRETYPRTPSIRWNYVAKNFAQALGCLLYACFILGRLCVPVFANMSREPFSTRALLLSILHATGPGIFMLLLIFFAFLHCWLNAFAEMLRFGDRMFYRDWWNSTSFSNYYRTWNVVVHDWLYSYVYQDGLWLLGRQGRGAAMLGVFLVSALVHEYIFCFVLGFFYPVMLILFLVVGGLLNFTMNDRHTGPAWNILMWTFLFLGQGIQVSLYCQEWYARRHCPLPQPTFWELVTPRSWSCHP
Kind of assay: ACAT Assay (in vitro). The format is biochemical. To be noted: Conc. 10 µM; negative = apparent stimulation; read-out: ACAT (in vitro) % Inhib.

The subject of the next assay is Hyperlipidemic Hamster. The assay is described as follows: In Vivo Assay of Hypolipidemic Agents Using the Hyperlipidemic Hamster. The following applies: 7 days, percent change versus control, negative = lowering; for change in vivo at 50 mg/kg / change in vivo at 10 mg/kg / change in vivo at 25 mg/kg / change in vivo at 3 mg/kg / change in vivo at 5 mg/kg / change in vivo at 40 mg/kg: Mesocricetus auratus, po, 168 h; for change in vivo at 50 mg/kg / % Reduction (in vivo) Cholest. Esters / % Reduction (in vivo) Serum Cholest.: 50 mg/kg once daily oral; for change in vivo at 10 mg/kg: 10 mg/kg once daily oral; for change in vivo at 25 mg/kg: 25 mg/kg once daily oral; for change in vivo at 3 mg/kg: 3 mg/kg once daily oral; for change in vivo at 5 mg/kg: 5 mg/kg once daily oral; for change in vivo at 40 mg/kg: 40 mg/kg once daily oral. The procedure, abridged: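 Hamsters, six per group, were fed chow with 0.5% cholesterol for seven days and given compound once daily by oral gavage in corn oil; controls received corn oil alone. Plasma (EDTA) and liver lipids were measured at sacrifice. Values are percent change versus control, so negative means lowering.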

Where [1] appears, read: read-out: % Reduction (in vivo) Cholest. Esters.
The mark [2] stands for this setting: read-out: % Reduction (in vivo) Serum Cholest.

Molecules are shown by their SMILES. Where two headings read alike, the source gives them in different places.

Procedure for ACAT: This assay measures the activity of ACAT by measuring the ACAT-mediated transfer of tritiated oleic acid from acyl-CoA to cholesterol to give labelled cholesteryl oleate. Rat liver microsomes are used as the source of ACAT. Assays are performed in round bottom microtiterplates using a total incubation volume of 50 μL. […] The microtiterplate is then floated on the surface of a 37° C. water bath for fifteen minutes. Incubations are started by the addition of 3 μL ^3 H-acyl CoA (1 μCi/well, final concentration of 10 μM acyl CoA). The plate is then returned to the water bath for 15 minutes. The incubations are then terminated by application of 15 μL from each incubation to individual lanes on a thin layer plate (Silica Gel GF 20×20 cm). Standards are applied to several lanes so that the cholesteryl ester band can be identified. After drying, the plates am eluted with 90:10:1 petroleum ether:diethyl ether:acetic acid. The standards am visualized via iodine vapor, and the regions corresponding to cholesteryl ester are scraped into 7 mL scintillation vials. 4 mL of scintillant are added to each vial, and the radioactivity quantified. Background count is determined by the boiled controls. Full activity is determined by activity in the presence of vehicle. The percent inhibition is calculated by subtracting the background from both control and test samples, and the test value is calculated as a percentage of the control.
For the in vitro ACAT data, negative percent inhibition denotes apparent stimulation,while positive numbers denote inhibition.

As for `COc1ccc(N2C(=O)[C@@H](C)[C@@H]2c2ccccc2)cc1` (relative stereo) [Example 1AI], the inhibition at 10 µM on ACAT was determined as 27%.
Take `COc1ccc(N2C(=O)[C@@H](CCc3ccccc3)[C@@H]2c2ccccc2)cc1` (relative stereo) [Example 1E]: the inhibition at 10 µM at ACAT stood at 3%.
Still for that read-out and setting: in the case of `CC[C@H]1C(=O)N(c2c(OC)cc(OC)cc2OC)[C@H]1c1ccccc1` (relative stereo) [Example 1AE] it was -7%.
Same read-out and setting: in the case of `CCCCCCCCCC[C@@]1(CCCc2ccccc2)C(=O)N(c2ccc(OC)cc2)[C@@H]1c1ccccc1` (relative stereo) [Example 3C] it was -18%.
On the same count and under the same terms, the value for `CC[C@H]1C(=O)N(c2ccc(OC)cc2)[C@@H]1c1ccccc1` (relative stereo) [Example 1AD] was -5%.
Turning to `CON=Cc1ccc([C@H]2[C@H](CCCc3ccccc3)C(=O)N2c2ccc(OC)cc2)cc1` (relative stereo) [Example 27A], the change in vivo at 50 mg/kg in the assay on Hyperlipidemic Hamster (setting [1]) was -42%; with Hyperlipidemic Hamster (setting [2]) it was -15%.
In the same order, the values of `COc1ccc(N2C(=O)[C@H](CCCc3ccccc3)[C@H]2c2ccc(OCc3ccccc3)cc2)cc1` (relative stereo) [Example 5T] are -48% and -15%.
Take `COc1ccc([C@H]2[C@@H](CCCc3ccccc3)C(=O)N2c2ccc(Cl)cc2)cc1` (relative stereo) [Example 1AO]: the figures for the change in vivo at 50 mg/kg with Hyperlipidemic Hamster (setting [1]) and in the assay on Hyperlipidemic Hamster (setting [2]) were -78% and -33%, respectively.
In the same order, the values of `COc1ccc(N2C(=O)[C@H](CCCc3ccccc3)[C@@H]2c2ccc(N(S(C)(=O)=O)S(C)(=O)=O)cc2)cc1` (relative stereo) [Example 25B] are 0% and 0%.
In the same order, the values of `COc1ccc([C@@H]2[C@@H](CCCc3ccccc3)C(=O)N2c2cccnc2)cc1` (relative stereo) [Example 1AM] are -29% and -12%.
Turning to `COc1ccc(N2C(=O)[C@H](CCCc3ccccc3)[C@@H]2c2ccc(C3OCCO3)cc2)cc1` (relative stereo) [Example 31], the figures for the change in vivo at 50 mg/kg in the assay on Hyperlipidemic Hamster (setting [1]) and in the assay with Hyperlipidemic Hamster (setting [2]) were -52% and -19%, respectively.
The matching figures for `COc1ccc([C@@H]2[C@@H](CCCCCCc3ccccc3)C(=O)N2c2ccc(OC)cc2)cc1` (relative stereo) [Example 5Y]: 0% and -29%.
As for `COc1ccc(N2C(=O)[C@H](CCCc3ccccc3)[C@H]2c2ccc(O)c(I)c2)cc1` (relative stereo) [Example 32], the change in vivo at 50 mg/kg in the assay with Hyperlipidemic Hamster (setting [1]) and with Hyperlipidemic Hamster (setting [2]) was 0% each time.
Take `COc1ccc(N2C(=O)[C@@H](CCCc3ccccc3)[C@@H]2c2ccc(C(=O)O)cc2)cc1` (relative stereo) [Example 22]: the change in vivo at 50 mg/kg is -33% in the assay on Hyperlipidemic Hamster (setting [1]) and -17% with Hyperlipidemic Hamster (setting [2]).
In the same order, the values of `COc1ccc(N2C(=O)[C@H](CCCc3ccccc3)[C@@H]2c2ccc(S)cc2)cc1` (relative stereo) [Example 28] are 0% and -19%.
With `COc1ccc([C@@H]2[C@@H](CCCc3ccccc3)C(=O)N2c2ccc(OC)cc2)cc1` (relative stereo) [Example 5], in the assay with Hyperlipidemic Hamster, the “% Reduction (in vivo) Cholest. Esters” value is given as -77.5% and the “% Reduction (in vivo) Serum Cholest.” value is -29%. Moreover, in the assay on Hyperlipidemic Hamster (setting [1]), the change in vivo at 10 mg/kg is -60% and the change in vivo at 25 mg/kg is -72%. In addition, in the assay with Hyperlipidemic Hamster (setting [2]), the change in vivo at 10 mg/kg was -21% and the change in vivo at 25 mg/kg was -20%.
Take `COc1ccc(N2C(=O)[C@H](CCCc3ccccc3)[C@H]2c2ccc(Oc3ccccc3)cc2)cc1` (relative stereo) [Example 5V]: the change in vivo at 50 mg/kg in the assay with Hyperlipidemic Hamster (setting [1]) was -77%; with Hyperlipidemic Hamster (setting [2]) it was -37%.
In the same order, the values of `COc1ccc([C@@H]2[C@@H](CCCc3ccc([N+](=O)[O-])cc3)C(=O)N2c2ccc(OC)cc2)cc1` (relative stereo) [Example 7Z] are -39% and -21%.
Turning to `COc1ccc([C@H]2[C@H](CCCc3ccccc3)C(=O)N2c2ccccc2)cc1` [Example 5M], in the assay on Hyperlipidemic Hamster (setting [1]), the change in vivo at 3 mg/kg worked out at 0%, the change in vivo at 10 mg/kg was -36% and the change in vivo at 50 mg/kg was -50%. Also, in the assay with Hyperlipidemic Hamster (setting [2]), the change in vivo at 3 mg/kg is -12%, the change in vivo at 10 mg/kg is -8% and the change in vivo at 50 mg/kg was -20%.
Regarding `COc1ccc([C@H]2[C@@H](CCCc3ccccc3)C(=O)N2c2ccc(C)cc2)cc1` (relative stereo) [Example 1AP], the change in vivo at 50 mg/kg was -95% with Hyperlipidemic Hamster (setting [1]) and -51% in the assay on Hyperlipidemic Hamster (setting [2]).
Take `COc1ccc(N2C(=O)C(CCCc3ccccc3)C2c2ccc(C3OCCO3)cc2)cc1` (stereo not shown) [Example 1AX]: in the assay with Hyperlipidemic Hamster, the “% Reduction (in vivo) Cholest. Esters” value is listed as -52% and the “% Reduction (in vivo) Serum Cholest.” value is given as -16%.
Regarding `COc1ccc(N2C(=O)[C@H](CCCc3ccccc3)[C@@H]2c2ccnc3ccccc23)cc1` (relative stereo) [Example 1BX], the change in vivo at 50 mg/kg in the assay with Hyperlipidemic Hamster (setting [1]) and in the assay with Hyperlipidemic Hamster (setting [2]) was 0% each time.
For `COc1ccc(N2C(=O)[C@H](CCCc3ccccc3)[C@@H]2c2ccc(-c3ccccc3)cc2)cc1` (relative stereo) [Example 1BT], the change in vivo at 50 mg/kg in the assay on Hyperlipidemic Hamster (setting [1]) and in the assay on Hyperlipidemic Hamster (setting [2]) was 0% throughout.
As for `COc1ccc([C@@H]2[C@@H](CCCc3ccccc3)C(=O)N2c2ccc(SC)cc2)cc1` (relative stereo) [Example 5I], the change in vivo at 50 mg/kg was -70% in the assay on Hyperlipidemic Hamster (setting [1]) and -26% in the assay on Hyperlipidemic Hamster (setting [2]).
In the same order, the values of `COc1ccc([C@@H]2[C@@H]([C@H]3C[C@H]3Cc3ccccc3)C(=O)N2c2ccc(OC)cc2)cc1` (relative stereo) [Example 36] are -94% and -53%.
The matching figures for `COC(=O)C=C(C)N[C@@H]1C(=O)N(c2ccccc2)[C@@H]1c1ccc(OC)cc1` (relative stereo) [Example 7J]: -27% and -21%.
For the compound `COc1ccc([C@@H]2[C@H](CCCc3ccccc3)C(=O)N2c2ccc(OC)cc2)cc1` [Example 2], in the assay on Hyperlipidemic Hamster (setting [1]), the change in vivo at 5 mg/kg is -37% and the change in vivo at 10 mg/kg was -69%. In the assay on Hyperlipidemic Hamster (setting [2]), the change in vivo at 5 mg/kg was -15% and the change in vivo at 10 mg/kg is -28%.
For the compound `COc1ccc([C@@H]2[C@@H](CCCc3ccccc3)C(=O)N2c2ccccc2)cc1` (relative stereo) [Example 7], in the assay with Hyperlipidemic Hamster (setting [1]), the change in vivo at 3 mg/kg is -50%, the change in vivo at 10 mg/kg was -89.5% and the change in vivo at 40 mg/kg was -95%. Moreover, in the assay with Hyperlipidemic Hamster (setting [2]), the change in vivo at 3 mg/kg is -30%, the change in vivo at 10 mg/kg is -41% and the change in vivo at 40 mg/kg was -49%.
With `COc1ccc([C@@H]2[C@H](Oc3ccc4ccccc4c3)C(=O)N2c2ccc(OC)cc2)cc1` (relative stereo) [Example 7AL], the values for the change in vivo at 50 mg/kg with Hyperlipidemic Hamster (setting [1]) and in the assay on Hyperlipidemic Hamster (setting [2]) were 0% and -13%, respectively.
Take `COc1ccc(N2C(=O)[C@H](CCCc3ccccc3)[C@H]2c2ccc(NC(C)=O)cc2)cc1` (relative stereo) [Example 26]: the values for the change in vivo at 50 mg/kg in the assay on Hyperlipidemic Hamster (setting [1]) and in the assay with Hyperlipidemic Hamster (setting [2]) were -26% and -4%, respectively.
The matching figures for `COc1ccc([C@@H]2[C@H](N(C)C)C(=O)N2c2ccccc2)cc1` (relative stereo) [Example 1CJ]: 0% and 0%.
For `COc1ccc([C@H]2[C@@H](CCCc3ccccc3)C(=O)N2c2ccc(OC)cc2)cc1` [Example 2A], the change in vivo at 50 mg/kg with Hyperlipidemic Hamster (setting [1]) and in the assay with Hyperlipidemic Hamster (setting [2]) was 0% in each case.
